Measured values from ChEMBL document CHEMBL1157141, “Prediction of intestinal absorption and metabolism of pharmacologically active flavones and flavanones” (Bioorg Med Chem, 2008).

Columns and labels:
[1] = Stability in hank's balanced salt solution at 15 uM after 180 mins; type: physicochemical; conditions: read-out: Stability
[2] = Stability in hank's balanced salt solution at 15 uM after 20 mins; type: physicochemical; conditions: read-out: Stability
[3] = Apparent permeability from basolateral to apical side in human Caco-2 cells assessed as drug recovery; type: ADME, cell-based; conditions: read-out: Activity
[4] = Stability in hank's balanced salt solution at 15 uM after 120 mins; type: physicochemical; conditions: read-out: Stability
[5] = Stability in hank's balanced salt solution at 15 uM after 24 hrs; type: physicochemical; conditions: read-out: Stability
[6] = Apparent permeability from apical to basolateral side in human Caco-2 cells assessed as drug recovery; type: ADME, cell-based; conditions: read-out: Activity
[7] = Apparent permeability from apical to basolateral side in human Caco-2 cells; type: ADME, cell-based; conditions: read-out: permeability
[8] = Ratio of permeability from basolateral to apical side over apical to basolateral side in human Caco-2 cells; type: ADME, cell-based
[9] = Apparent permeability across PAMPA membrane assessed as drug recovery; type: ADME; conditions: read-out: Activity
[10] = Apparent permeability across PAMPA membrane; type: ADME; conditions: read-out: permeability
[11] = Apparent permeability from basolateral to apical side in human Caco-2 cells; type: ADME, cell-based; conditions: read-out: permeability
[12] = Stability in hank's balanced salt solution at 15 uM after 60 mins; type: physicochemical; conditions: read-out: Stability

Row | SMILES | remaining at 3 h, 15 µM [1] | remaining at 20 min, 15 µM [2] | recovery [3] | remaining at 2 h, 15 µM [4] | remaining at 24 h, 15 µM [5] | recovery [6] | Papp A→B [7] | efflux ratio [8] | recovery [9] | Papp [10] | Papp B→A [11] | remaining at 1 h, 15 µM [12]
1 | COc1ccc(-c2cc(=O)c3c(O)cc(O[C@@H]4O[C@H](CO[C@@H]5O[C@@H](C)[C@H](O)[C@@H](O)[C@H]5O)[C@@H](O)[C@H](O)[C@H]4O)cc3o2)cc1O [DIOSMIN] | 78.4% | 103% | 68.9% | 88.6% | 0% | 61.9% |  |  |  |  |  | 
2 | COc1ccc(-c2cc(=O)c3c(O)cc(O)cc3o2)cc1O [DIOSMETIN] | 98.4% | 100% | 66.8% | 101% | 50.9% | 59.1% | 76.2 ×10⁻⁶ cm/s | 0.2 | 82% | 76.1 ×10⁻⁶ cm/s | 12.4 ×10⁻⁶ cm/s | 96.5%
3 | O=C1C[C@@H](c2ccc(O)cc2)Oc2cc(O)cc(O)c21 [NARINGENIN] | 91.2% |  | 93% | 100% | 79.9% | 54.4% | 37.8 ×10⁻⁶ cm/s |  | 87% | 25.7 ×10⁻⁶ cm/s | 51.4 ×10⁻⁶ cm/s | 99.4%
4 | C[C@@H]1O[C@@H](O[C@H]2[C@H](Oc3cc(O)c4c(c3)O[C@H](c3ccc(O)cc3)CC4=O)O[C@H](CO)[C@@H](O)[C@@H]2O)[C@H](O)[C@H](O)[C@H]1O [NARINGIN] | 90.4% | 98.3% | 88.4% | 92.2% | 88.5% | 85.7% |  |  |  |  |  | 
5 | COc1ccc([C@@H]2CC(=O)c3c(O)cc(O)cc3O2)cc1O [HESPERETIN] | 90.8% | 94.5% | 70.1% | 91.1% | 80% | 34.1% | 47.1 ×10⁻⁶ cm/s | 0.6 | 84% | 35.7 ×10⁻⁶ cm/s | 27 ×10⁻⁶ cm/s | 99.9%
6 | COc1ccc([C@@H]2CC(=O)c3c(O)cc(O[C@@H]4O[C@H](CO[C@@H]5O[C@@H](C)[C@H](O)[C@@H](O)[C@H]5O)[C@@H](O)[C@H](O)[C@H]4O)cc3O2)cc1O [HESPERIDIN] | 86.3% | 99.8% | 80.2% | 87.9% | 84.9% | 76.9% |  |  |  |  |  | 
